# Patent US20080280862A1, “Methods, compositions, and kits for the treatment of pain” (priority 2007, published 2008)
# Test system: formalin-induced pain model in rats
# Test: Formalin pain model, nociceptive behaviors
# Format: in vivo, Sprague-Dawley rats
# Method: The formalin model is a fast, reliable model used to assess potential analgesics ability to block inflammatory pain. The analgesic effects of test article combinations on pain generation are assayed using the formalin-induced pain model in rats. Adult male Sprague-Dawley rats are administered intraperitoneally study drugs (vehicle, TCA, steroid or TCA/Steroid test article combinations) once daily for 2 days (day −2 and day −1) and 30 minutes prior to the formalin injection day on day 0 (time=0). […] To elicit a pain response, dilute formalin (2% in saline) is injected under the skin of the plantar surface of the right hindpaw. The animal is placed in an observation chamber. The pain response is a characteristic biphasic response pattern of nociceptive behaviors (lifting, licking, and biting of the injected paw). Two distinct periods of nociceptive behaviors/activity are observed and recorded: an early phase (phase I) lasting the first 5-10 min and a late phase (phase II) lasting 20-40 min after the injection of formalin. One hour of data is collected (time spent displaying pain behavior) by a blinded observer using a stopwatch. Results are expressed as the number of pain behaviors per 5 minute periods (Table 8 and Table 9).
compound,measurement,setting,value
CNCCC=C1c2ccccc2CCc2ccccc21 [Nortriptyline],Mean number of behaviors per 5 minute block,"Experiment One, nortriptyline, 1 mg/kg, 5 minutes",185.0 ± 30.0
same,Mean number of behaviors per 5 minute block,"Experiment One, nortriptyline, 1 mg/kg, 10 minutes",26.0 ± 16.0
same,Mean number of behaviors per 5 minute block,"Experiment One, nortriptyline, 1 mg/kg, 15 minutes",16.0 ± 16.0
same,Mean number of behaviors per 5 minute block,"Experiment One, nortriptyline, 1 mg/kg, 20 minutes",33.0 ± 22.0
same,Mean number of behaviors per 5 minute block,"Experiment One, nortriptyline, 1 mg/kg, 25 minutes",124.0 ± 40.0
same,Mean number of behaviors per 5 minute block,"Experiment One, nortriptyline, 1 mg/kg, 30 minutes",170.0 ± 46.0
same,Mean number of behaviors per 5 minute block,"Experiment One, nortriptyline, 1 mg/kg, 35 minutes",181.0 ± 47.0
same,Mean number of behaviors per 5 minute block,"Experiment One, nortriptyline, 1 mg/kg, 40 minutes",168.0 ± 46.0
same,Mean number of behaviors per 5 minute block,"Experiment One, nortriptyline, 1 mg/kg, 45 minutes",176.0 ± 45.0
same,Mean number of behaviors per 5 minute block,"Experiment One, nortriptyline, 1 mg/kg, 50 minutes",191.0 ± 42.0
same,Mean number of behaviors per 5 minute block,"Experiment One, nortriptyline, 1 mg/kg, 55 minutes",165.0 ± 41.0
same,Mean number of behaviors per 5 minute block,"Experiment One, nortriptyline, 1 mg/kg, 60 minutes",89.0 ± 34.0
same,Mean number of behaviors per 5 minute block,"Experiment One, nortriptyline, 3 mg/kg, 5 minutes",248.0 ± 10.6
same,Mean number of behaviors per 5 minute block,"Experiment One, nortriptyline, 3 mg/kg, 10 minutes",36.0 ± 12.0
same,Mean number of behaviors per 5 minute block,"Experiment One, nortriptyline, 3 mg/kg, 15 minutes",87.0 ± 32.8
same,Mean number of behaviors per 5 minute block,"Experiment One, nortriptyline, 3 mg/kg, 20 minutes",159.0 ± 39.7
same,Mean number of behaviors per 5 minute block,"Experiment One, nortriptyline, 3 mg/kg, 25 minutes",182.0 ± 36.3
same,Mean number of behaviors per 5 minute block,"Experiment One, nortriptyline, 3 mg/kg, 30 minutes",231.0 ± 32.4
same,Mean number of behaviors per 5 minute block,"Experiment One, nortriptyline, 3 mg/kg, 35 minutes",253.0 ± 30.7
same,Mean number of behaviors per 5 minute block,"Experiment One, nortriptyline, 3 mg/kg, 40 minutes",253.0 ± 30.8
same,Mean number of behaviors per 5 minute block,"Experiment One, nortriptyline, 3 mg/kg, 45 minutes",258.0 ± 28.3
same,Mean number of behaviors per 5 minute block,"Experiment One, nortriptyline, 3 mg/kg, 50 minutes",212.0 ± 28.3
same,Mean number of behaviors per 5 minute block,"Experiment One, nortriptyline, 3 mg/kg, 55 minutes",136.0 ± 40.3
same,Mean number of behaviors per 5 minute block,"Experiment One, nortriptyline, 3 mg/kg, 60 minutes",94.0 ± 41.7
same,Mean number of behaviors per 5 minute block,"Experiment One, nortriptyline, 10 mg/kg, 5 minutes",227.0 ± 19.3
same,Mean number of behaviors per 5 minute block,"Experiment One, nortriptyline, 10 mg/kg, 10 minutes",30.0 ± 18.2
same,Mean number of behaviors per 5 minute block,"Experiment One, nortriptyline, 10 mg/kg, 15 minutes",11.0 ± 6.1
same,Mean number of behaviors per 5 minute block,"Experiment One, nortriptyline, 10 mg/kg, 20 minutes",39.0 ± 29.4
same,Mean number of behaviors per 5 minute block,"Experiment One, nortriptyline, 10 mg/kg, 25 minutes",62.0 ± 38.5
same,Mean number of behaviors per 5 minute block,"Experiment One, nortriptyline, 10 mg/kg, 30 minutes",60.0 ± 34.4
same,Mean number of behaviors per 5 minute block,"Experiment One, nortriptyline, 10 mg/kg, 35 minutes",99.0 ± 43.0
same,Mean number of behaviors per 5 minute block,"Experiment One, nortriptyline, 10 mg/kg, 40 minutes",109.0 ± 44.0
same,Mean number of behaviors per 5 minute block,"Experiment One, nortriptyline, 10 mg/kg, 45 minutes",122.0 ± 43.2
same,Mean number of behaviors per 5 minute block,"Experiment One, nortriptyline, 10 mg/kg, 50 minutes",96.0 ± 39.1
same,Mean number of behaviors per 5 minute block,"Experiment One, nortriptyline, 10 mg/kg, 55 minutes",140.0 ± 42.6
same,Mean number of behaviors per 5 minute block,"Experiment One, nortriptyline, 10 mg/kg, 60 minutes",180.0 ± 40.3
same,Mean number of behaviors per 5 minute block,"Experiment One, nortriptyline, 20 mg/kg, 5 minutes",158.0 ± 31.6
same,Mean number of behaviors per 5 minute block,"Experiment One, nortriptyline, 20 mg/kg, 10 minutes",21.0 ± 12.8
same,Mean number of behaviors per 5 minute block,"Experiment One, nortriptyline, 20 mg/kg, 15 minutes",0.0 ± 0.0
same,Mean number of behaviors per 5 minute block,"Experiment One, nortriptyline, 20 mg/kg, 20 minutes",9.0 ± 8.8
same,Mean number of behaviors per 5 minute block,"Experiment One, nortriptyline, 20 mg/kg, 25 minutes",30.0 ± 30.0
same,Mean number of behaviors per 5 minute block,"Experiment One, nortriptyline, 20 mg/kg, 30 minutes",36.0 ± 29.9
same,Mean number of behaviors per 5 minute block,"Experiment One, nortriptyline, 20 mg/kg, 35 minutes",33.0 ± 29.2
same,Mean number of behaviors per 5 minute block,"Experiment One, nortriptyline, 20 mg/kg, 40 minutes",29.0 ± 29.3
same,Mean number of behaviors per 5 minute block,"Experiment One, nortriptyline, 20 mg/kg, 45 minutes",33.0 ± 26.9
same,Mean number of behaviors per 5 minute block,"Experiment One, nortriptyline, 20 mg/kg, 50 minutes",46.0 ± 28.2
same,Mean number of behaviors per 5 minute block,"Experiment One, nortriptyline, 20 mg/kg, 55 minutes",47.0 ± 29.4
same,Mean number of behaviors per 5 minute block,"Experiment One, nortriptyline, 20 mg/kg, 60 minutes",68.0 ± 37.6
same,Mean number of behaviors per 5 minute block,"Experiment Two, 1 mg/kg, 5 minutes",232.0 ± 16.5
same,Mean number of behaviors per 5 minute block,"Experiment Two, 1 mg/kg, 10 minutes",13.0 ± 4.9
same,Mean number of behaviors per 5 minute block,"Experiment Two, 1 mg/kg, 15 minutes",27.0 ± 16.8
same,Mean number of behaviors per 5 minute block,"Experiment Two, 1 mg/kg, 20 minutes",113.0 ± 44.2
same,Mean number of behaviors per 5 minute block,"Experiment Two, 1 mg/kg, 25 minutes",165.0 ± 45.1
same,Mean number of behaviors per 5 minute block,"Experiment Two, 1 mg/kg, 30 minutes",234.0 ± 26.3
same,Mean number of behaviors per 5 minute block,"Experiment Two, 1 mg/kg, 35 minutes",270.0 ± 10.6
same,Mean number of behaviors per 5 minute block,"Experiment Two, 1 mg/kg, 40 minutes",281.0 ± 10.4
same,Mean number of behaviors per 5 minute block,"Experiment Two, 1 mg/kg, 45 minutes",287.0 ± 5.5
